Results: paper PMC5515969, “Effects of 31 FDA approved small-molecule kinase inhibitors on isolated rat liver mitochondria” (Archives of Toxicology, 2016)
Where two headings read alike, the source gives them in different places.

How the values were obtained:
RCC II = biological target: T1, RCC II (Rattus norvegicus, UniProt P21913+Q641Z9+Q6PCT8+Q920L2); assay: RCC II activity in submitochondrial particles; format: biochemical; set-up: key: activity relative to DMSO-treated controls (control set as 1 = 100%); conditions: relative to DMSO treated samples
T1 construct: Submitochondrial particles were prepared by subjecting the intact mitochondria to three successive freeze–thaw cycles; from tissue; host or cells: rat liver mitochondria, used as submitochondrial particles
Experimental: (§1) KIs were incubated with submitochondrial particles (1 mg/ml) for 15 min and then RCC I–V activities measured. […] The activities of DMSO-treated samples (controls) were set as 1. […] The difference between the activity from rotenone-containing buffer and rotenone-absent buffer was considered as RCC I activity. […] For measuring RCC I/V and II activity, the changes in absorbance at 340 and 600 nm, respectively, were determined every 1 min for 6 min. For measuring RCC III and RCC IV, the changes in absorbance at 550 nm were measured every 10 s for 2 min.

RCC III = RCC III activity in submitochondrial particles; format: biochemical, rat; set-up: key to RCC III at 100XCmax: activity relative to DMSO-treated controls (control set as 1 = 100%); conditions: for RCC activity III: 15 min, DMSO-treated = 100
Experimental: as §1

RCC IV = RCC IV activity in submitochondrial particles; format: biochemical, rat; set-up: key to RCC IV at 50XCmax / RCC IV at 100XCmax: activity relative to DMSO-treated controls (control set as 1 = 100%); conditions: for RCC activity IV: 15 min, DMSO-treated = 100
Experimental: as §1

RCC V = RCC V activity in submitochondrial particles; format: biochemical, rat; conditions: for RCC activity V: 15 min, DMSO-treated = 100; as to RCC V at 5XCmax: key: 0 indicates that the drug had no effects (negative)
Experimental: as §1

[1] = system: isolated rat liver mitochondria; assay: Mitochondrial inner membrane potential (MMP), Rhodamine 123; format: biochemical; conditions: difference in signal between KI and DMSO treated samples at the end of experiments
Source text: Fig. 3 KI effects on mitochondrial inner membrane potential (MMP). […] In a, c, data are means and standard derivations from three separate experiments. *p < 0.05 as compared to DMSO-treated samples at the end of experiments. In b, data are means of two independent experiments

[2] = system: isolated rat liver mitochondria; assay: Mitochondrial swelling (absorbance at 535 nm); format: biochemical; as to Swelling 5XCmax: key: 0 indicates that the drug had no effects (negative)
[3] = system: isolated rat liver mitochondria; conditions: positive control alamethicin treated samples
[4] = set-up: method as in product labeling; conditions: ref product labeling, cited from earlier work
[5] = cited from earlier work
[6] = system: isolated rat liver mitochondria; assay: Mitochondrial ROS production (CM-H2DCFDA)

T1 sequence (Q920L2 35-656): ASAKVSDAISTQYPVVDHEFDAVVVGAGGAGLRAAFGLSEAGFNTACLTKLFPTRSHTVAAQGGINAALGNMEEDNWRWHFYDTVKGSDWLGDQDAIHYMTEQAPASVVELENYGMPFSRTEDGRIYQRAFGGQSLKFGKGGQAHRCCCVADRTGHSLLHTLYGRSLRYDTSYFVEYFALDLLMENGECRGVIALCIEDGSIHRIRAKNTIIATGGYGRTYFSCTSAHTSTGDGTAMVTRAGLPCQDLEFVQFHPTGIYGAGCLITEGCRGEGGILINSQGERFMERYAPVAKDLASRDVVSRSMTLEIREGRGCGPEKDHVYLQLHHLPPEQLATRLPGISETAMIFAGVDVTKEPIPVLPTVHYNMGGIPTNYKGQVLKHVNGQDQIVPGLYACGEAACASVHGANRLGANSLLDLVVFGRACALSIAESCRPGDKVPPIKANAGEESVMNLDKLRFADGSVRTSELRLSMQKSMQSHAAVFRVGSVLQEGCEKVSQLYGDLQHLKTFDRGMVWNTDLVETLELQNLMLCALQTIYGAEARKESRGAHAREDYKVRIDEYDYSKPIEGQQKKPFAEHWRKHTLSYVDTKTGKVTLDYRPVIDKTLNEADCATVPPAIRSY
T1 sequence (P21913 31-282): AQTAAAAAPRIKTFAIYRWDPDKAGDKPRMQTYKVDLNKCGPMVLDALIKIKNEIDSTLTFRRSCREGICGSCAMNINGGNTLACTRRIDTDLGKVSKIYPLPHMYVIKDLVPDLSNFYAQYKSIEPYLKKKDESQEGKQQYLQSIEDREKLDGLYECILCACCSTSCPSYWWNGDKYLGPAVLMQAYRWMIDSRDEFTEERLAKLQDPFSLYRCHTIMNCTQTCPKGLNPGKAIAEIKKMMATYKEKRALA
T1 sequence (Q641Z9 1-169): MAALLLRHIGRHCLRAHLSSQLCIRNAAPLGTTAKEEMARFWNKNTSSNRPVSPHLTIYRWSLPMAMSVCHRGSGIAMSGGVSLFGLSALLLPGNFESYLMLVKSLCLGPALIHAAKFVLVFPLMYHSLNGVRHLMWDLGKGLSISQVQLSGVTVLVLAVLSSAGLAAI
T1 sequence (Q6PCT8 57-159): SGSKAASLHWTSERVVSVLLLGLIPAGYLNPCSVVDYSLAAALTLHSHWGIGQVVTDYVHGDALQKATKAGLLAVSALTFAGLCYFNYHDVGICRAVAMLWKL

In the case of `C[C@@H](Oc1cc(-c2cnn(C3CCNCC3)c2)cnc1N)c1c(Cl)ccc(F)c1Cl` [Crizotinib], the “RCC II at 1.0XCmax” value (RCC II; 1.0XCmax) is reported as 0, the “RCC II at 2.5XCmax” value (RCC II; 2.5XCmax) is reported as 0 and the “RCC II at 5XCmax” value (RCC II; 5XCmax) is reported as 0. For the same compound, the “RCC II at 10XCmax” value (RCC II; 10XCmax) was 0, the “RCC II at 20XCmax” value (RCC II; 20XCmax) was 0 and the “RCC II at 30XCmax” value (RCC II; 30XCmax) was 0. For the same compound, the “RCC II at 50XCmax” value (RCC II; 50XCmax) was 0, the “RCC II at 100XCmax” value (RCC II; 100XCmax) was 0 and the “RCC activity III” value (RCC III; 20-fold Cmax) was 99.67 ± 8.65 % of control. For the same compound, the “RCC activity III” value (RCC III; 30-fold Cmax) was 106.26 ± 5.79 % of control, the “RCC activity III” value (RCC III; 50-fold Cmax) was 98.02 ± 7.16 % of control and the “RCC activity III” value (RCC III; 100-fold Cmax) was 103.28 ± 2.85 % of control. The “RCC III at 100XCmax” value (RCC III; 100XCmax, relative to DMSO treated samples) was 0, the “RCC activity IV” value (RCC IV; 20-fold Cmax) was 94.03 ± 9.67 % of control and the “RCC activity IV” value (RCC IV; 30-fold Cmax) was 96.65 ± 4.14 % of control. The “RCC activity IV” value (RCC IV; 50-fold Cmax) was 103.77 ± 5.67 % of control, the “RCC IV at 50XCmax” value (RCC IV; 50XCmax, relative to DMSO treated samples, in %) was 0 and the “RCC activity IV” value (RCC IV; 100-fold Cmax) was 96.60 ± 8.40 % of control. The “RCC V at 5XCmax” value (RCC V; 5XCmax, relative to DMSO treated samples) was 0, the “RCC activity V” value (RCC V; 20-fold Cmax) was 95.77 ± 7.64 % of control and the “RCC activity V” value (RCC V; 30-fold Cmax) was 98.65 ± 2.98 % of control. For the same compound, the “RCC activity V” value (RCC V; 50-fold Cmax) was 91.95 ± 5.63 % of control, the “RCC V at 50XCmax” value (RCC V; 50XCmax, relative to DMSO treated samples) was 0 and the “MMP measured by Rhodamine 123 at 1XCmax” value ([1]; 1XCmax) was 0. The “MMP measured by Rhodamine 123 at 2.5XCmax” value ([1]; 2.5XCmax) was 0, the “MMP measured by Rhodamine 123 at 5XCmax” value ([1]; 5XCmax) was 0 and the “MMP measured by Rhodamine 123 at 10XCmax” value ([1]; 10XCmax) was 0. The “MMP measured by Rhodamine 123 at 20XCmax” value ([1]; 20XCmax) was 0, the “MMP measured by Rhodamine 123 at 30XCmax” value ([1]; 30XCmax) was 0 and the “MMP measured by Rhodamine 123 at 50XCmax” value ([1]; 50XCmax) was 0. The “MMP measured by Rhodamine 123 at 100XCmax” value ([1]; 100XCmax) was 0, the “Swelling 1XCmax” value ([2]; 1XCmax, difference in signal between KI and DMSO treated samples at the end of experiments) was 0 and the “Swelling 2.5XCmax” value ([2]; 2.5XCmax, difference in signal between KI and DMSO treated samples at the end of experiments) was 0. The “Swelling 5XCmax” value ([2]; 5XCmax, difference in signal between KI and DMSO treated samples at the end of experiments) was 0, the “Swelling 10XCmax” value ([2]; 10XCmax, difference in signal between KI and DMSO treated samples at the end of experiments) was 0 and the “Swelling 20XCmax” value ([2]; 20XCmax, difference in signal between KI and DMSO treated samples at the end of experiments) was 0. The “Swelling 30XCmax” value ([2]; 30XCmax, difference in signal between KI and DMSO treated samples at the end of experiments) was 0, the “Swelling 50XCmax” value ([2]; 50XCmax, difference in signal between KI and DMSO treated samples at the end of experiments) was 0 and the “Swelling 100XCmax” value ([2]; 100XCmax, difference in signal between KI and DMSO treated samples at the end of experiments) was 0.19±0.03. The “effect on mitochondrial swelling” value ([2]; up to 100-fold Cmax or highest testable concentration, 25 µM calcium chloride) was “significant mitochondrial swelling”, the “Cytochrome c release 1XCmax” value ([3]; 1XCmax) was 0 and the “Cytochrome c release 2.5XCmax” value ([3]; 2.5XCmax) was 0. The “Cytochrome c release 5XCmax” value ([3]; 5XCmax) was 0, the “Cytochrome c release 10XCmax” value ([3]; 10XCmax) was 0 and the “Cytochrome c release 20XCmax” value ([3]; 20XCmax) was 0. The “Cytochrome c release 30XCmax” value ([3]; 30XCmax) was 0, the “Cytochrome c release 50XCmax” value ([3]; 50XCmax) was 12.29±1.27 percentage of the positive control group and the “Cytochrome c release 100XCmax” value ([3]; 100XCmax) was 24.66±1.67 percentage of the positive control group. For the same compound, the Labeling for cardiotoxicity ([4]; BBW: black box warning, W&P: Warnings and Precautions) was “W&P: QT Interval Prolongation; Bradycardia”, the “Potential for cardiotoxicity (based on labeling)” value [4] was 1 and the “DILI potential (based on labeling)” value ([5]; 1 = DILI positive, 0 = negative, ref product labeling) was 1. For the same compound, the “Labeling for DILI” value ([5]; BBW: black box warning, W&P: Warnings and Precautions, ref product labeling) was “W&P: fatal DILI”, the “labeling for DILI” value ([5]; W&P warnings and precautions, BBW black box warnings, ref FDA product labeling) was “W&P: fatal DILI” and the “DILI potential (based on labeling)” value ([5]; ref FDA product labeling) was 1. For the same compound, the “ROS measured by CM-H2DCFDA at 1XCmax” value ([6]; 1XCmax, DMSO treated samples set as 1) was 0, the “ROS measured by CM-H2DCFDA at 2.5XCmax” value ([6]; 2.5XCmax, DMSO treated samples set as 1) was 0 and the “ROS measured by CM-H2DCFDA at 5XCmax” value ([6]; 5XCmax, DMSO treated samples set as 1) was 0. The “ROS measured by CM-H2DCFDA at 10XCmax” value ([6]; 10XCmax, DMSO treated samples set as 1) was 0, the “ROS measured by CM-H2DCFDA at 20XCmax” value ([6]; 20XCmax, DMSO treated samples set as 1) was 1.46±0.08 and the “ROS measured by CM-H2DCFDA at 30XCmax” value ([6]; 30XCmax, DMSO treated samples set as 1) was 1.75±0.32. For the same compound, the “ROS measured by CM-H2DCFDA at 50XCmax” value ([6]; 50XCmax, DMSO treated samples set as 1) was 2.06±0.27, the “ROS measured by CM-H2DCFDA at 100XCmax” value ([6]; 100XCmax, DMSO treated samples set as 1) was 2.74±0.18 and the “effect on ROS production” value ([6]; highest tested concentrations) was “significantly ROS production”.
